Test results from patent publication US20090082353A1, “TREATMENT OF EPILEPSY WITH NON-IMIDAZOLE ALKYLAMINES HISTAMINE H3-RECEPTOR LIGANDS” (priority 2005, published 2009).

Experiments:
[1] = system: convulsions; details: rodents; cited from earlier work
[2] = system: H3-receptor; details: cited from earlier work
[3] = system: pentetrazole-induced convulsions; details: mice and rats; cited from earlier work
[4] = system: electrically-driven convulsions; details: in vivo; cited from earlier work
[5] = system: amygdaloid-kindled seizures; details: rats; cited from earlier work
[6] = system: seizure susceptibility; details: mice; cited from earlier work
[7] = system: intrahippocampal kainate-induced temporal lobe seizures; details: mice; cited from earlier work
[8] = system: intrahippocampal kainate-induced temporal lobe seizures; assay: intrahippocampal kainate-induced temporal lobe seizures in mice, EEG; format: in vivo
Description: Unilateral injection of kainic acid (1 nmol in 50 nl) into the dorsal hippocampus in mice induces a non-convulsive status that results in spontaneous recurrent focal seizures after 2-3 weeks. Seizures (5 to 20 times per hour in quiet mice) are characterized by a behavioural arrest and/or stereotypes, concomitant with spike and poly-spike discharges recorded in the injected hippocampus. […] This model reproduces the behavioural, EEG, pharmacological and histological characteristics of mesial temporal lobe epilepsy, a form of epilepsy which is often drug-resistant in humans. After a recovery period, implanted mice (for EEG recordings) were injected with kainic acid. They were EEG recorded at least 3 weeks after injection for selection of animals with consistent hippocampal seizure. Then, after a 20 min reference recording period, selected mice received either 3-(4-Chlorophenyl)propyl 3-piperidinopropyl ether (10 or 20 mg/kg i.p.) or saline and the recording was continued for 60 min. Treatments were given in a counter balanced order (after a one week washout period between two sessions).

[9] = system: pharmacoresistant epilepsy; assay: clinical study in pharmacoresistant epileptic patients; format: in vivo, human; details: 20 to 40 mg/day during 3 months
Description: A clinical study has confirmed the efficiency of the compounds of the invention in treating pharmacoresistant epilepsy. Epileptic patients were enrolled. Those patients suffered from highly frequent seizures (generally more than 10 seizures monthly) despite their treatment consisting in one or more usual anti-epileptic drug of various classes (barbiturics, depakine, lamotrigine, gabapenine, benzodiazepines . . . ). Patients were administered with 3-(4-Chlorophenyl)propyl 3-piperidinopropyl ether at doses comprised between 20 and 40 mg/day during 3 months. Seizures frequency was reduced by 50% in a significant number of patients.

[10] = system: high-frequency cortical rhythms (EEG); assay: EEG rhythms in healthy human volunteers; format: in vivo
Source text: In healthy human volunteers, orally-administered 3-(4-Chlorophenyl)propyl 3-piperidinopropyl ether dose-dependently elicited electroencephalographic changes (i.e. enhanced high-frequency cortical rhythms at the expense of low-frequency rhythms) which are regarded as predictory of facilitated thalamo-cortical activation and inhibition of pathological synchronisation underlying spike-wave discharges in epileptic states (Avanzini et al, Clinical Neurophysiol, 2000, 111, Suppl 2, S19). Groups of 6 male subjects received 40-120 mg 3-(4-Chlorophenyl)propyl 3-piperidinopropyl ether orally.

[11] = system: photo paroxymal response (PPR); assay: photosensitivity model, intermittent photic stimulation (IPS) in epileptic patients; format: in vivo, human
Source text: Photosensitivity, defined as a generalized epileptiform reaction on intermittent photic stimulation (IPS) outlasting the stimulus train is found in about 5% of epileptic patients (Kasteleijn-Nolst trenité DGA. Acta Neurol Scand, 1989; 80:1-149). Unlike most other epilepsies, photosensitive epilepsy is a reflex epilepsy and epileptiform discharges can be evoked at any time by IPS in the laboratory. By determination of both upper and lower sensitivity limits (frequencies per flash) a so-called photosensitivity range can be determined. This range is related to liability of seizures in daily life of the patient. This photosensitivity range is relatively stable within a patient and can be diminished of abolished by antiepileptic medication. […] Furthermore, it is possible to explore the time, onset and duration of the effect, a dose-response relationship and to document serum concentration-time profiles of the study drug. […] The single blind design was chosen in order to reduce comparison bias of IPS response observed after treatment with 3-(4-Chlorophenyl)propyl 3-piperidinopropyl ether administration at Day 2 with placebo evaluation at Day 1. Five single doses will be studied (10 to 90 mg). the margin of safety was determined from the nonclinical and clinical experiments with 3-(4-Chlorophenyl)propyl 3-piperidinopropyl ether.

[12] = system: clonic convulsions induced by pentetrazole; assay: clonic convulsions induced by pentetrazole in mice; format: in vivo
Description: The inventors also assessed the effects of one of the non-imidazole compound they described in WO 00/06254, BF2-649 (3-(4-chlorophenyl)propyl 3-piperidinopropyl ether) at 10 mg/kg on clonic convulsions induced by pentetrazole in mice.

[13] = system: GAERS (Genetic Absence Epilepsy, Rat from Strasbourg); assay: GAERS rat genetic model of absence epilepsy, EEG spike-and-wave discharges; format: in vivo
Description: In a rat genetic model of human epilepsy (particularly of “absence” epilepsy in children and adults), the GAERS (Genetic Absence Epilepsy, Rat from Strasbourg; Vergnes et al, Epilepsy Res. 1989; 4, 8-13), 3-(4-Chlorophenyl)propyl 3-piperidinopropyl ether diminished by up to 77% the number and duration of spike-and-wave discharges, i.e. characteristic EEG changes of the disorder, at a dose of 20 mg/kg. In this strain of Wistar rats with spontaneous generalized non convulsive seizures (absence seizures), seizures are characterized by bilateral and synchronous spike-and-wave discharges (7-9 Hz) on EEG, concomitant with behavioural arrests. These discharges generally last about 20 sec and occur spontaneously every minute when the animals are in a state of quiet wakefulness. Pharmacological reactivity of this model is similar to human absence-epilepsy (e.g., valproate and ethosuccimide are protective). After a recovery period, implanted rats (cortical and hippocampal EEG electrodes) were recorded over a 20 min reference period. Then, 3-(4-Chlorophenyl)propyl 3-piperidinopropyl ether (5 or 20 mg/kg, i.p.) or saline were administered (n=8 per group) and the EEG recording was continued for 60 min. Rats received the alternate treatment one week later. Cumulated duration of absence-seizures was measured by 20 min periods during the two sessions.

[14] = system: GAERS (Genetic Absence Epilepsy, Rat from Strasbourg); details: in vivo; cited from earlier work

Structure (SMILES): NCCc1c[nH]cn1 [histamine]
- protection from convulsions [1]: tend to protect rodents from convulsions

Structure (SMILES): c1ccc(C2(N3CCCCC3)CCCCC2)cc1 [phencyclidine]
- potency of H3-receptor antagonism [2]: only very low potency

Structure (SMILES): NC(=NCc1ccc(Cl)cc1)SCCCc1cnc[nH]1 [clobenpropit]
- effect on pentetrazole-induced convulsions [3]: prevent pentetrazole-induced convulsions
- effect on electrically-driven convulsions [4]: reduce electrically-driven convulsions

Structure (SMILES): S=C(NC1CCCCC1)N1CCC(c2cnc[nH]2)CC1 [thioperamide]
- effect on amygdaloid-kindled seizures [5]: ineffective
- effect on seizure susceptibility [6]: failed to affect seizure susceptibility
- effect on pentetrazole-induced convulsions [3]: prevent pentetrazole-induced convulsions
- effect on electrically-driven convulsions [4]: reduce electrically-driven convulsions

Structure (SMILES): C(=NC12CC3CC(CC(C3)C1)C2)N1CCC(c2cnc[nH]2)CC1.Cl.Cl [AQ0145]
- effect on pentetrazole-induced convulsions [3]: prevent pentetrazole-induced convulsions
- effect on electrically-driven convulsions [4]: reduce electrically-driven convulsions

Structure (SMILES): O=C1NC(=O)C(c2ccccc2)(c2ccccc2)N1 [phenyloin]
- effect of antiepileptic drugs on kainate-induced seizures [7]: without significant effects

Structure (SMILES): Clc1ccc(CCCOCCCN2CCCCC2)cc1 [3-(4-chlorophenyl)propyl 3-piperidinopropyl ether]
- frequency of discharges ([8]; 10 or 20 mg/kg i.p., mice): reduced significantly
- modification of interictal EEG profiles (non specific sedative effect) ([8]; 10 or 20 mg/kg i.p., mice): without any significant modification
- hippocampal seizures, number and duration ([8]; kainate mice): reducing both the number and duration of seizures
- tolerability [9]: perfectly well tolerated
- reduction of seizures frequency ([9]; add-on, in a significant number of patients): 50%
- EEG response after repeated dosing ([10]; 40 mg for 1 week): enhancement of the response observed on single administration
- fast EEG activities ([10]; 40-120 mg orally, single dose, anterior leads, dose-dependent): significant enhancement of fast activities
- suppression of PPR ([11]; 20 mg, four patients): one patient showed total suppression
- duration of total PPR suppression ([11]; 20 mg, one patient): 6 h
- suppression of PPR ([11]; 40 mg, four patients): one showed partial suppression of PPR and one total suppression of PPR
- duration of effect ([11]; 60 mg): more than 8 hours
- onset of effect post administration ([11]; 60 mg): 1 to 2 h
- clinical response ([11]; 60 mg, four patients): clinical response in all four patients
- total suppression of PPR ([11]; 60 mg, four patients): two patients showed total suppression of PPR
- longest duration of effect ([11]; 60 mg, one patient): up to 36 hours
- tolerability of addition to conventional antiepileptic drugs ([11]; add-on to Depakine, Tegretol, Keppra, Lamictal): well tolerated
- EEG changes triggered by repetitive photic stimulation ([11]; single dose, photosensitive patients): dose-dependently suppressed
- modification (enhancement) of anticonvulsive properties of established antiepileptic drugs ([12]; 10 mg/kg with carbamazepine, sodium valproate, phenyloin, diazepam, Phenobarbital): did not modify
- preventing the convulsion (latency or duration) ([12]; 10 mg/kg, mice, pentetrazole): ineffective
- diminution of number and duration of spike-and-wave discharges ([13]; 20 mg/kg i.p., GAERS rats): up to 77%
- spike and wave discharges at 20 min ([13]; 20 mg/kg, 20 min): total suppression
- spike and wave discharges at 1 h ([13]; 20 mg/kg, 1 h): nearly total suppression

Structure (SMILES): Cc1nc(N)nc(N)c1-c1ccc(Cl)c(Cl)c1 [metoprine]
- protection from convulsions [1]: tend to protect rodents from convulsions

Structure (SMILES): NC(=O)N1c2ccccc2C=Cc2ccccc21 [carbamazepine]
- effect of antiepileptic drugs on kainate-induced seizures [7]: without significant effects

Structure (SMILES): N[C@@H](Cc1c[nH]cn1)C(=O)O [L-histidine]
- protection from convulsions [1]: tend to protect rodents from convulsions

Structure (SMILES): CNCCc1ccccn1 [betahistine]
- potency of H3-receptor antagonism [2]: only very low potency

Structure (SMILES): CN(C)CCCSC(=N)N [dimaprit]
- potency of H3-receptor antagonism [2]: only very low potency

Structure (SMILES): CC[C@@H](C(N)=O)N1CCCC1=O [levetiracetam]
- effect of antiepileptic drugs on kainate-induced seizures [7]: without significant effects

Structure (SMILES): CCC1(C)CC(=O)NC1=O (stereo not shown) [ethosuccimide]
- pharmacological reactivity of the GAERS model [14]: protective
